US20240130675A1, “Methods for Treating Autism Spectrum Disorder” (The General Hospital Corporation, priority 2021, published 2024)

Tests used:
youth with ASD = test: 12-week RCT: associated psychopathology and global functioning (ADHD-RS, CASI-ANX, CDRS-R, GAF); assay type: in vivo, human; conditions: MEM [N = 16]
Experimental: This study was a 12-week, randomized, double-blind, placebo-controlled, parallel group clinical trial of memantine in youth with ASD. Youth with ASD who met the eligibility criteria were randomized to receive either memantine or placebo during the course of the 12-week trial. Participants underwent multimodal MRI scans prior to and upon completion of the 12-week trial. Participants were assessed weekly during the titration phase (baseline to Week 4) and at midpoint (Week 6), Week 9, and completion (Week 12) during the maintenance phase. At each study visit, safety and efficacy were assessed by administering measures of efficacy (CGI, GAF), tolerability (assessing treatment-emergent AEs), and safety (vital signs, including weight). At baseline, midpoint, and endpoint (completion/early termination) severity of autism was assessed by administering measures of autism severity (SRS-2, ABC-SW, CY-BOCS-PDD) and associated psychopathology (ADHD-RS, CDRS-R, CASI-ANX).
Additional treatment response of autism impairment was examined for the ASD subdomains by assessing change with treatment in the severity of the SRS-2 subscales and the Children's Yale Brown Obsessive Compulsive Scale modified for PDD (CY-BOCS-PDD) (Goodman et al., 1986 (Rev 89); Scahill et al., 2006) to assess change with treatment in the ritualistic behaviors associated with ASD. Treatment response of frequently associated psychopathologies with ASD was assessed by administering the clinician-rated Attention Deficit Hyperactivity Disorder Rating Scale (ADHD-RS) (DuPaul, Power, Anastopoulos, & Reed, 1998), Children's Depression Rating Scale-Revised (CDRS-R)(Poznanski et al., 1985), and CASI-4 ASD Anxiety Scale (CASI-4 ASD Anxiety Scale (CASI-Anx)(Gadow et al., 2002). Change with treatment in the level of global functioning was assessed by the clinician-rated GAF.
The mixed-effects regression models used to analyze the secondary measures of efficacy predicted the outcome measure from treatment group (memantine versus placebo), study visit (continuous), and the treatment group-by-study visit interaction, which is our test of efficacy. To examine the effect of baseline PgACC glutamate activity level on the response to treatment, we predicted outcomes measures from treatment group, study visit (continuous), PgACC glutamate activity level (continuous), treatment group-by-study visit interaction, glutamate activity level-by-study visit interaction, treatment group-by-glutamate activity level interaction, and treatment group-by-glutamate activity level-by-study visit interaction. All mixed-effects regression models had random intercepts by subject ID, used robust standard errors to account for the repeated measures on each subject, and used an independent covariance structure for the random effects. […] All missing data were assumed to be missing at random.
Effect sizes are presented as standardized mean differences (SMD) for continuous outcomes and odds ratios (OR) for dichotomous outcomes. The SMDs for the difference of the changes in scores over time between memantine and placebo and between high glutamate and normal glutamate were calculated as Cohen's d using the following calculations: the difference in the change scores between the two groups divided by the pooled standard deviation. The SMDs for changes in scores within groups were calculated as Cohen's d using the following calculation: difference in score from baseline to endpoint divided by the pooled standard deviation. For comparisons of memantine versus placebo and high glutamate versus normal glutamate, positive SMDs and ORs>1 indicate better improvement in the memantine group and high glutamate group, respectively. For comparisons of ASD versus healthy controls, positive SMDs indicate lower glutamate activity levels in the ASD group. […]

adults with HF-ASD = test: Uncontrolled (pilot) trial of memantine in adults with HF-ASD (Joshi et al., 2016); assay type: in vivo, human; conditions: estimate from pilot study, used for sample size
From the text: Memantine is a moderate-affinity, non-competitive, NMDA receptor antagonist that is approved by the U.S. Food and Drug Administration (FDA) for the treatment of moderate to severe Alzheimer's disease (U.S. FDA, 2003).
We determined a priori that we would need a sample size of 40 participants in total (20 participants per group) to detect this difference in response rate at a 2-sided significance level of 0.05 with 80% power. Our final sample consisted of 16 participants in the memantine group and 19 participants in the placebo group with response data. With this sample size, we had […] power to detect the aforementioned difference in response rates.

## CC12CC3CC(C)(C1)CC(N)(C3)C2 [MEM, memantine]
Youth with ASD; BL (baseline)
  ADHD-RS: 29.1 ± 13.6
  CASI-ANX: 14.7 ± 8.6
  CDRS-R: 31.4 ± 17.1
  GAF: 53.6 ± 2.7
Youth with ASD; EP (endpoint)
  ADHD-RS: 18.8 ± 10.9
  CASI-ANX: 7.4 ± 5.6
  CDRS-R: 22.8 ± 7.5
  GAF: 61.8 ± 4.4
Youth with ASD; MD (mean difference)
  ADHD-RS: −10.3 ± 10.6
  CASI-ANX: −7.3 ± 6.2
  CDRS-R: −8.7 ± 10.8
  GAF: 8.2 ± 5.9
Adults with HF-ASD
  Estimated share of participants on memantine responding to treatment: 57%
